Reference: patent US20200339691A1, “PROTEINACEOUS MOLECULES AND USES THEREFOR” (priority 2018, published 2020)
Where a SMILES comes first, the peptide text is derived from it. The star is where a group is joined. Myristoyl = CCCCCCCCCCCCCC(=O)*

Test system: 5-methylcytosine
Test: Immunofluorescence of 5-methylcytosine in MDA-MB-231 cells
Assay type: cell-based, human
Conditions: 50 μM, 72 hours
Description: 1×10^4 MDA-MB-231 cells were seeded onto coverslips in 12 well plates with DMEM media. Cells were treated with 50 μM P1, P2, P3 or P4 (synthesized in accordance with Example 5) or vehicle (water) for 72 hours. Cells were fixed with 3.7% formaldehyde and permeabilized with 2% Triton-X-100, then probed with primary mouse antibodies to CSV, DMNT1, H3K9me3 or 5-methylcytosine; primary goat antibodies to SNAI1, SETDB1 or ABCB5; or primary rabbit antibodies to PD-L1, EGFR, EHMT2; followed by the corresponding secondary antibody conjugated to anti-mouse Alexa-Fluor 568, anti-goat Alexa-Fluor 633 or anti-rabbit Alexa-Fluor 488. Confocal laser scanning microscopy was used to measure the TFI, TNFI and TCFI as described above. At least 20 individual cells were analyzed per sample.

## CCCCCCCCCCCCCC(=O)N[C@@H](CC(C)C)C(=O)N[C@H](C(=O)N[C@@H](Cc1ccccc1)C(=O)N[C@H](C(=O)N[C@@H](Cc1ccccc1)C(=O)N[C@@H](CCCNC(=N)N)C(=O)N[C@@H](CC(C)C)C(=O)N[C@@H](CCCNC(=N)N)C(=O)N[C@@H](CCCCNC(C)=O)C(=O)NCC(=O)N[C@@H](CCCNC(=N)N)C(=O)N[C@@H](CCSC)C(=O)N[C@@H](CCSC)C(=O)N[C@@H](CC(=O)O)C(=O)N[C@H](C(=O)N[C@@H](CCCCN)C(=O)N[C@@H](CCCCN)C(N)=O)C(C)C)[C@@H](C)CC)[C@@H](C)O [Peptide P3, Myristoyl-LTFIFRLRK(Ac)GRMMDVKK-NH2] (Myristoyl-LTFIFRLRK(Ac)GRMMDVKK-NH2)
  expression of 5-methylcytosine: strongly inhibited
